Experiments:
[1] = tested on: BVDV; experiment: BVDV inactivation in spiked human RBCC by hypericin with luciferase system; format: cell-based, Bovine Viral Diarrhea Virus; conditions: for Unwashed Titer / Washed Titer: RT 2 hours in the dark; for Unwashed Titer / Unwashed VRF: unwashed samples; for Unwashed Titer: doses per sample label; for Washed Titer / Washed VRF: washed samples; for Combined VRF: treatment plus washing, compared to unwashed untreated RBC control; for Unwashed VRF: compared to titer of untreated RBC control; for Washed VRF: compared to washed untreated RBC control
Description: Ten different combinations of DMEM (—Ca^++, —Mg^++), RBCC, virus, hypericin, Luciferin, ATP and luciferase were prepared to all contain equivalent titers of BVDV calculated to be 6.48 log10TCID50/mL based on the titer of the original virus stock. The concentrations of hypericin tested were 0, 40 and 200 μg/mL. Luciferase was tested at 0, 0.8 and 4.0 μM. Luciferin and ATP were present at 80 and 800 μM respectively when luciferase was present and absent in the absence of luciferase.
The components were mixed and incubated at RT for 2 hours in the dark followed by titration of unwashed and washed samples as previously described. Washing rows of wells with dilutions 1 and 2 was performed 3 days post-infection. Final CPEs were read 10 days post-infection.
The various combinations tested, the titers obtained and the calculated VRFs compared to the titer of the untreated RBC control are listed in Table 2.

[2] = tested on: RBC; experiment: Cytotoxicity, interference, RBC morphology and integrity after hypericin treatment; format: cell-based
Description: Cytotoxicity and interference studies are performed per CPMP/FDA guidelines to calculate the reduction in viral titers due to these factors and exclude them from the calculated reduction factors resulting from the antiviral treatment. The antiviral compounds are removed from the system by washing the erythrocytes. Appropriate controls are kept to determine the contribution of washing to the viral reduction factors.

[3] = tested on: BVDV; experiment: BVDV inactivation in spiked RBCC by doxorubicin alone; format: cell-based, Bovine Viral Diarrhea Virus; conditions: for Unwashed Titer / Washed Titer: 37° C. 2 hours in the dark; for Unwashed Titer: doxorubicin Low = 0.53 mM, High = 1.6 mM; for Combined VRF: treatment plus washing, compared to mean unwashed RBC controls; for Unwashed VRF: compared to mean titer of untreated RBC controls; for Washed VRF: compared to mean titer of washed untreated RBC controls
Description: Two levels of doxorubicin (low and high), RBCC, virus and DMEM (—Ca^++, —Mg^++) were prepared to all contain equivalent titers of BVDV calculated to be 6.23 log10 TCID50/mL (logs) based on the titer of the original virus stock.
The components were mixed and incubated at 37° C. for 2 hours in the dark followed by titration of unwashed and washed samples as previously described. Washing rows of wells with dilutions 1 and 2 was performed the next day. Final CPE were read 2 weeks post-infection. Cells were also monitored for cytotoxicity from the treatment components other than the virus 1 day and 2 weeks post-infection as in previous experiments.
The various combinations tested, the titers obtained and the calculated VRFs compared to the mean titer of the untreated RBC controls are listed in Table 4. There was no hemolysis or clumping for any of the samples at the end of the treatment period.

[4] = tested on: Human Adenovirus-2 (HAd-2); experiment: Earlier inactivation of HAd-2 in unwashed RBCC samples; format: cell-based; conditions: doxorubicin alone, observed previously

## Cc1cc(O)c2c(=O)c3c(O)cc(O)c4c5c(O)cc(O)c6c(=O)c7c(O)cc(C)c8c1c2c(c34)c(c78)c65 [HH-LN, Hypericin]
[1]
  Unwashed Titer: 3.10 log10TCID50/mL
  Washed Titer: 2.48 log10TCID50/mL
  Combined VRF: 3.87 logs
  Unwashed VRF: 3.25 logs
  Washed VRF: 1.50 logs

## Cc1cc(O)c2c(=O)c3c(O)cc(O)c4c5c(O)cc(O)c6c(=O)c7c(O)cc(C)c8c1c2c(c34)c(c78)c65 [Hypericin]
[2]; hypericin 40 μg/mL with CDP-Star 0.1 mM
  impact on cytotoxicity, interference, RBC morphology and integrity: very little impact
[2]; hypericin 40 μg/mL with luciferase 0.16 μM
  impact on cytotoxicity, interference, RBC morphology and integrity: very little impact

## COc1cccc2c1C(=O)c1c(O)c3c(c(O)c1C2=O)C[C@@](O)(C(=O)CO)C[C@@H]3O[C@H]1C[C@H](N)[C@H](O)[C@H](C)O1 [Dox-H, Doxorubicin]
[3]
  Unwashed Titer: 3.10 log10 TCID50/mL
  Washed Titer: 3.10 log10 TCID50/mL
  Combined VRF: 2.50 logs
  Unwashed VRF: 2.50 logs
  Washed VRF: −0.19 logs

## COc1cccc2c1C(=O)c1c(O)c3c(c(O)c1C2=O)C[C@@](O)(C(=O)CO)C[C@@H]3O[C@H]1C[C@H](N)[C@H](O)[C@H](C)O1 [Dox-L, Doxorubicin]
[3]
  Unwashed Titer: 3.23 log10 TCID50/mL
  Washed Titer: 3.10 log10 TCID50/mL
  Combined VRF: 2.50 logs
  Unwashed VRF: 2.38 logs
  Washed VRF: −0.19 logs

## COc1cccc2c1C(=O)c1c(O)c3c(c(O)c1C2=O)C[C@@](O)(C(=O)CO)C[C@@H]3O[C@H]1C[C@H](N)[C@H](O)[C@H](C)O1 [Doxorubicin, (1S,3S)-3-glycoloyl-3,5,12-trihydroxy-10-methoxy-6,11-dioxo-1,2,3,4,6,11-hexahydrotetracen-1-yl 3-amino-2,3,6-trideoxy-α-L-lyxo-hexo-pyranoside]
[3]; doxorubicin treatment alone
  viral inactivation activity against BVDV: has viral inactivation activity
[4]
  viral inactivation activity against HAd-2 virus: has viral inactivation activity

## Cc1cc(O)c2c(=O)c3c(O)cc(O)c4c5c(O)cc(O)c6c(=O)c7c(O)cc(C)c8c1c2c(c34)c(c78)c65 [HL-LN, Hypericin]
[1]
  Unwashed Titer: 3.48 log10TCID50/mL
  Washed Titer: <2.34 log10TCID50/mL
  Combined VRF: >4.01 logs
  Unwashed VRF: 2.87 logs
  Washed VRF: >1.64 logs

Source: patent US20240335575A1, “METHOD AND APPARATUS FOR INACTIVATING PATHOGENS IN UNITS OF WHOLE BLOOD USING SUPERPARAMAGNETIC NANOPARTICLES COATED WITH CHEMILUMINESCENCE REAGENTS AND BROAD-SPECTRUM ANTI-VIRAL THERAPEUTICS” (Aphios Corporation, priority 2021, published 2024)
